Results as given in patent US20240423207A1, “PICOLINAMIDE COMPOUNDS WITH FUNGICIDAL ACTIVITY” (CORTEVA AGRISCIENCE LLC, priority 2014, published 2024).
Read-outs that look alike come from different tables or passages of the source.

Tests used:
[1] = test system: Puccinia triticina; Synonym: Puccinia recondita f sp. tritici; assay: Wheat Brown Rust (PUCCRT) fungicidal activity on wheat seedlings; assay type: in vivo; conditions: Low Volume, 121.5 g/H
Procedure, shortened: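 Yuma wheat seedlings (first leaf emerged) were sprayed to run-off with compound in acetone/water 1:9 (110 ppm Triton X-100), and P. triticina spores were inoculated before or after treatment. Plants were kept overnight in a 22 °C dark dew room at 100% RH, then moved to a 24 °C greenhouse; % control was based on first-leaf severity (0–100%) versus untreated plants.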

Leptosphaeria nodorum = assay: Wheat Glume Blotch (LEPTNO) fungicidal activity on wheat seedlings; assay type: in vivo; conditions: Parastagonospora nodorum, 24 h, 1 Day Protectant, read-out: LEPTNO 1 DP disease control
Description: Technical grades of materials were dissolved in acetone, which were then mixed with nine volumes of water (H2O) containing 110 ppm Triton X-100. The fungicide solutions were applied onto wheat seedlings using an automated booth sprayer to run-off. All sprayed plants were allowed to air dry prior to further handling. All fungicides were evaluated using the aforementioned method for their activity vs. all target diseases, unless stated otherwise. Wheat leaf blotch and brown rust activity were also evaluated using track spray applications, in which case the fungicides were formulated as EC formulations, containing 0.1% Trycol 5941 in the spray solutions. Wheat plants (variety Yuma) were grown from seed in a greenhouse in 50% mineral soil/50% soil-less Metro mix until the first leaf was fully emerged, with 7-10 seedlings per pot. These plants were inoculated with an aqueous spore suspension of Septoria tritici either prior to or after fungicide treatments. After inoculation the plants were kept in 100% relative humidity (one day in a dark dew chamber followed by two to three days in a lighted dew chamber at 20° C.) to permit spores to germinate and infect the leaf. The plants were then transferred to a greenhouse set at 20° C. for disease to develop. When disease symptoms were fully expressed on the 1st leaves of untreated plants, infection levels were assessed on a scale of 0 to 100 percent disease severity. Percent disease control was calculated using the ratio of disease severity on treated plants relative to untreated plants. Example C: Evaluation of Fungicidal Activity: Wheat Glume Blotch (Leptosphaeria nodorum; Bayer code […]) Wheat plants (variety Yuma) were grown from seed in a greenhouse in 50% mineral soil/50% soil-less Metro mix until the first leaf was fully emerged, with 7-10 seedlings per pot. These plants were inoculated with an aqueous spore suspension of Leptosphaeria nodorum 24 h after fungicide treatments. After inoculation the plants were kept in 100% relative humidity (one day in a dark dew chamber followed by two days in a lighted dew chamber at 20° C.) to permit spores to germinate and infect the leaf. The plants were then transferred to a greenhouse set at 20° C. for disease to develop. Fungicide formulation, application and disease assessment followed the procedures as described in the Example A.

[2] = 24 h, 1 Day Protectant, read-out: PUCCRT 1DP disease control
[3] = 72 h, 3 Day Curative, read-out: PUCCRT 3DC disease control

SMILES	pest or weed control at 121.5 g/ha [1, 2]	pest or weed control at 121.5 g/ha [1, 3]	pest or weed control at 100 ppm (Leptosphaeria nodorum)
COc1ccnc(C(=O)N[C@@H](C)C(=O)O[C@@H](C)C(c2ccccc2)c2ccccc2)c1OC(C)=O [Cmpd 139, (S)-(S)-1,1-diphenylpropan-2-yl 2-(3-acetoxy-4-methoxypicolinamido)propanoate]	> 80%	> 80%	> 80%
COc1ccnc(C(=O)N[C@@H](C)C(=O)O[C@@H](C)C(c2ccccc2)c2ccccc2)c1OC(=O)C(C)C [Cmpd 140]	> 80%	< 80%	> 80%
COc1ccnc(C(=O)N[C@@H](C)C(=O)O[C@@H](C)C(c2ccccc2)c2ccccc2)c1OCOC(C)=O [Cmpd 141, (S)-(S)-1,1-diphenylpropan-2-yl 2-(3-(acetoxymethoxy)-4-methoxypicolinamido)propanoate]	> 80%	> 80%	> 80%
COc1ccnc(C(=O)N[C@@H](C)C(=O)O[C@@H](C)C(c2ccccc2)c2ccccc2)c1OCOC(=O)C(C)C [Cmpd 142, (S)-(S)-1,1-diphenylpropan-2-yl 2-(3-((isobutyryloxy)methoxy)-4-methoxypicolinamido)propanoate]	> 80%	> 80%	> 80%
COc1ccnc(C(=O)N[C@@H](C)C(=O)O[C@@H](C)C(c2ccc(F)cc2)c2ccc(F)cc2)c1OC(C)=O [Cmpd 145]	> 80%	> 80%	> 80%
COc1ccnc(C(=O)N[C@@H](C)C(=O)O[C@@H](C)C(c2ccc(F)cc2)c2ccc(F)cc2)c1OCOC(C)=O [Cmpd 146]	> 80%	> 80%	> 80%
COc1ccnc(C(=O)N[C@@H](C)C(=O)O[C@@H](C)C(c2ccc(F)cc2F)c2ccc(F)cc2F)c1OCOC(C)=O [Cmpd 148]	> 80%	> 80%	> 80%
COc1ccnc(C(=O)N[C@@H](C)C(=O)O[C@@H](C)C(c2ccc(F)cc2F)c2ccc(F)cc2F)c1OC(C)=O [Cmpd 150]	> 80%	> 80%	> 80%
COc1ccnc(C(=O)N[C@@H](C)C(=O)O[C@@H](C)C(c2ccc(Cl)cc2)c2ccc(Cl)cc2)c1OC(C)=O [Cmpd 174]	> 80%	< 80%	> 80%
COc1ccnc(C(=O)N[C@@H](C)C(=O)O[C@@H](C)C(c2ccc(Cl)cc2)c2ccc(Cl)cc2)c1OCOC(C)=O [Cmpd 176]	> 80%	> 80%	> 80%
